Results reported in patent US20110224232A1 (Board of Regents, The University of Texas System, priority 2008, published 2011).
Where “and” joins values, the source holds several entries; their conditions need not be identical. Equal entries are not always repeated.

How the values were obtained:
[1] = test system: invasive pulmonary aspergillosis; settings: high doses, 40 mg/kg per day; cited from earlier work
[2] = underivatized; cited from earlier work
A. fumigatus = experiment: Lung histopathology, pulmonary lesion counts in A. fumigatus-infected mice; type: in vivo, Aspergillus fumigatus
Method: Histopathological changes in lung tissue were evaluated and compared for four mice in each of the inhaled voriconazole, inhaled control, and intraperitoneal AmB groups. The inhaled control was aerosolized CAPTISOL® at a concentration of 100 mg/mL over 20 minutes. On day 8 post inoculation, animals were euthanized using halothane and 10% volume/volume formaldehyde was instilled into the lungs via the trachea. Lungs were then harvested and placed into 10% volume/volume formaldehyde. Tissue was fixed in formaldehyde for an adequate period of time followed by processing and embedding into paraffin wax. Coronal sections of the entire lung were obtained at a thickness of 4-6 μm and mounted on slides. Sections were stained with hematoxylin and eosin and viewed by light microscopy with a Zeiss AxioVision Imager at 10× magnification. Two investigators were blinded and independently evaluated each lung section. The extent of lung damage caused by invasive hyphae was recorded and quantified by counting and normalizing the number of gross lesions.
Normalization of the histopathology results was achieved by using the number of lung pieces (sections) on the slide as a denominator. The total number of lesions on the slide were counted and then divided by the number of pieces of tissue on that slide. This was done because the number of pieces of tissue per slide (again, all from the same cut of lung from the same animal) ranged from 4 to 9. For example, the normalized number of lesions would be 0.4 if 2 lesions were observed on a slide with 5 lung pieces. Similarly, the normalized value would be 0.14 if 1 lesion was observed on a slide with 7 lung pieces.

Aspergillus fumigatus [3] = experiment: Pulmonary fungal burden by real-time quantitative PCR (conidial equivalents) in infected mice; type: in vivo; settings: Day + 8 per table footnote
Method: (§1) Mice were monitored for an additional 5 days following discontinuation of treatment. Animals that appeared moribund prior to the end of the study were euthanized by halothane and death was recorded as occurring the next day. 12 mice were randomly selected from each group and euthanized on Day +8 for fungal burden analysis while any remaining mice were euthanized on Day +12. 2 additional mice were randomly selected from each group and euthanized on Day +8 and Day +12 for histological analysis
Pulmonary fungal burden was also quantified by real-time quantitative polymerase chain reaction (qPCR) using previously described methods. Briefly, DNA was extracted from […] of lung homogenate with the use of a commercially available kit (DNeasy Tissue Kit, Qiagen, Valencia, Calif.) according to the manufacturer's instructions. DNA samples were analyzed in duplicate with the use of the ABI PRISM 7300 sequence-detection system (Applied Biosystems, Foster City, Calif.) with primers and dual-labeled fluorescent hybridization probes specific for the A. fumigatus 1,3-β-glucan synthase (FKS) gene (GenBank accession number U79728). The threshold cycle (Ct) of each sample was interpolated from a six-point standard curve generated by spiking naive mouse lungs with known amounts of conidia (102 to 107). An internal standard was amplified in separate reactions to correct for differences in DNA recovery. The resulting data was expressed as conidial equivalents (CE).
(§2) Statistical analyses were conducted as follows. Survival was plotted by Kaplan-Meier analysis, and differences in median survival and percent survival between prophylaxis groups were analyzed by the log-rank test and chi-square test, respectively, using Prism version 4 software (GraphPad, San Diego, Calif.). Differences in fungal burden endpoints (CFU/g and CE) were assessed for significance by analysis of variance with Tukey's post-test for multiple comparisons. A p-value of ≦0.05 was considered statistically significant for all comparisons.

[4] = test system: Aspergillus fumigatus clinical isolate 293 (AF 293); experiment: Survival of A. fumigatus-infected immunosuppressed mice (Kaplan-Meier); type: in vivo; settings: A. fumigatus-infected female ICR mice, VOR inhalation BID 30-40 mg/kg, AmB intraperitoneal QD 1 mg/kg
Text: Conidia were harvested from Aspergillus fumigatus clinical isolate 293 (AF 293) cultures grown on potato dextrose agar (Hardy Diagnostics, Santa Maria, Calif.) by washing and scraping agar surfaces with 0.1% Tween 80 in sterile physiological saline and filtering through sterile glass wool. Conidia were re-suspended to achieve a final inoculum of ˜1×10^9 conidia/mL, as confirmed by hemocytometer counts and serial plating.
Mice were rendered immunosuppressed by intraperitoneal cyclophosphamide (250 mg/kg) and subcutaneous cortisone acetate (250 mg/kg) two days prior to inoculation (Day −2). Both cyclophosphamide (200 mg/kg intraperitoneal) and cortisone acetate (250 mg/kg subcutaneously) were re-administered on Day +3 following inoculation. Mice also received prophylactic antibiotic therapy of ceftazidime 50 mg/kg administered sub-cutaneously on Day −2 through Day +7.
To simulate pulmonary pathogenesis, mice were placed inside an acrylic chamber, and A. fumigatus conidia were introduced by aerosolizing the conidial suspension with a small particle nebulizer (Hudson Micro Mist, Hudson RCI, Temecula, Calif.) driven by compressed air. A standard exposure time of 1 hour was used to allow for complete aerosolization of the conidial suspension. Starting inocula were assessed by colony forming unit (CFU) enumeration from mice one hour post-inoculation.
The inhaled control group received 20 minute nebulizations of 100 mg/mL CAPTISOL® solutions BID beginning on Day −2 and continuing through Day +7. The intraperitoneal AmB group received 1 mg/kg Amphotericin B deoxycholate (Apothecon, Princeton, N.J.) by intraperitoneal injection (IP) once daily (QD) on Day +1 and continuing through Day +7 (FIG. 2).
Statistical analyses were conducted as follows. Survival was plotted by Kaplan-Meier analysis, and differences in median survival and percent survival between prophylaxis groups were analyzed by the log-rank test and chi-square test, respectively, using Prism version 4 software (GraphPad, San Diego, Calif.). […] A p-value of ≦0.05 was considered statistically significant for all comparisons.

Aspergillus fumigatus [5] = experiment: Pulmonary fungal burden by colony forming units in infected mice; type: in vivo
Method: as §1
Lungs were homogenized in sterile saline (total volume 2 mL) supplemented with gentamicin and chloramphenicol using a tissue homogenizer (Polytron Dispensing and Mixing Technology PT 2100, Kinematica, Cincinnati, Ohio). Serial dilutions were prepared in sterile saline and plated in duplicate onto potato dextrose agar. Following 24 hours of incubation at 37° C., colonies were enumerated and colony forming units (CFU) per gram of lung tissue for each animal were calculated.
as §2

[6] = normalized lesions, listed as AmB

In the case of `CC[C@@H]([C@H](C)O)n1ncn(-c2ccc(N3CCN(c4ccc(OC[C@@H]5CO[C@@](Cn6cncn6)(c6ccc(F)cc6F)C5)cc4)CC3)cc2)c1=O` [posaconazole], the “fungal burden as measured by quantitative real-time PCR” value [1] is given as “significant reductions in fungal burden”.
In the case of `OC[C@H]1O[C@@H]2O[C@H]3[C@H](O)[C@@H](O)[C@@H](O[C@H]4[C@H](O)[C@@H](O)[C@@H](O[C@H]5[C@H](O)[C@@H](O)[C@@H](O[C@H]6[C@H](O)[C@@H](O)[C@@H](O[C@H]7[C@H](O)[C@@H](O)[C@@H](O[C@H]1[C@H](O)[C@H]2O)O[C@@H]7CO)O[C@@H]6CO)O[C@@H]5CO)O[C@@H]4CO)O[C@@H]3CO` [α-CD], the “water solubility at saturation” value [2] is listed as “about 14.5 % w/w”.
In the case of Amphotericin B deoxycholate, the “lung histopathology findings (in words)” value (A. fumigatus; A. fumigatus-infected mice, aerosolized voriconazole, intraperitoneal amphotericin B) was “marked pulmonary disease, including necrosis and the presence of invasive hyphae, was observed”, the “pulmonary lesions normalized for the number of lung tissue pieces per slide, Mean” value (A. fumigatus; normalized lesions) was 0.6 and the “pulmonary lesions normalized for the number of lung tissue pieces per slide, 25th Percentile” value (A. fumigatus; [6]) was 0.13 and 0.1. The “pulmonary lesions normalized for the number of lung tissue pieces per slide, 75th Percentile” value (A. fumigatus; [6]) was 1.31 and 1.3, the “pulmonary lesions normalized for the number of lung tissue pieces per slide, Maximum” value (A. fumigatus; [6]) was 1.6 and the “pulmonary lesions normalized for the number of lung tissue pieces per slide, Median” value (A. fumigatus; [6]) was 0.28 and 0.3. For the same molecule, the “pulmonary lesions normalized for the number of lung tissue pieces per slide, Minimum” value (A. fumigatus; [6]) was 0.13 and 0.1, the “pulmonary lesions in all available histological samples, 25th Percentile” value (A. fumigatus; number of lesions) was 1.0 and the “pulmonary lesions in all available histological samples, 75th Percentile” value (A. fumigatus; number of lesions) was 6.8. For the same molecule, the “pulmonary lesions in all available histological samples, Maximum” value (A. fumigatus; number of lesions) was 8.0, the “pulmonary lesions in all available histological samples, Mean” value (A. fumigatus; number of lesions) was 3.3 and the “pulmonary lesions in all available histological samples, Median” value (A. fumigatus; number of lesions) was 2.0. For the same molecule, the “pulmonary lesions in all available histological samples, Minimum” value (A. fumigatus; number of lesions) was 1.0, the “C - Conidial Equivalents Determined by qPCR, Mean” value (Aspergillus fumigatus [3]) was 4.89 log10 conidial equivalents and the “C - Conidial Equivalents Determined by qPCR, Median” value (Aspergillus fumigatus [3]) was 4.95 log10 conidial equivalents. The “C - Conidial Equivalents Determined by qPCR, Range” value (Aspergillus fumigatus [3]) was “(4.49-5.38) log10 conidial equivalents”, the “D - Conidial Equivalents per Gram of Lung Tissue Determined by Qpcr, Mean” value (Aspergillus fumigatus [3]; normalized for wet lung weight) was 5.50 log10 conidial equivalents per and the “D - Conidial Equivalents per Gram of Lung Tissue Determined by Qpcr, Median” value (Aspergillus fumigatus [3]; normalized for wet lung weight) was 5.57 log10 conidial equivalents per. The “D - Conidial Equivalents per Gram of Lung Tissue Determined by Qpcr, Range” value (Aspergillus fumigatus [3]; normalized for wet lung weight) was “(5.09-5.88) log10 conidial equivalents per”, the “Percent Survival” value ([4]; to Day +12) was 23.1% and the “Median Survival” value [4] was 7 days. For the same molecule, the “A - Day 8 Fungal Burden Determined by CFU, Mean” value (Aspergillus fumigatus [5]; Day +8) was 4.37 log10 CFU, the “A - Day 8 Fungal Burden Determined by CFU, Median” value (Aspergillus fumigatus [5]; Day +8) was 4.33 log10 CFU and the “A - Day 8 Fungal Burden Determined by CFU, Range” value (Aspergillus fumigatus [5]; Day +8) was “(3.59-5.07) log10 CFU”. The “B - Fungal Burden Determined by CFU for All Mice, Mean” value (Aspergillus fumigatus [5]; all samples, day 8 and day 12) was 4.22 log10 CFU, the “B - Fungal Burden Determined by CFU for All Mice, Median” value (Aspergillus fumigatus [5]; all samples, day 8 and day 12) was 4.33 log10 CFU and the “B - Fungal Burden Determined by CFU for All Mice, Range” value (Aspergillus fumigatus [5]; all samples, day 8 and day 12) was “(3.24-5.07) log10 CFU”.
